Experimental data from patent US20240247253A1, “PRODUCTION METHOD OF POLYPEPTIDE, TAG, EXPRESSION VECTOR, EVALUATION METHOD OF POLYPEPTIDE, PRODUCTION METHOD OF NUCLEIC ACID DISPLAY LIBRARY, AND SCREENING METHOD” (FUJIFILM Corporation, priority 2021, published 2024).
Ends that are not written are not given here. * marks the point of attachment. ClAc = O=C(CCl)*

Experiments:
[1] = system: cell-free peptide synthesis system derived from Escherichia coli; assay: Cell-free biosynthesis of the integrin binding peptide fusion protein with tag, reaction time 10 minutes, ELISA; format: biochemical; conditions: relative value, control without tag = 1; reaction time 10 minutes; fusion protein SEQ ID NO: 5; SKIK encoded by SEQ ID NO: 110
Experimental: (§1) The cell-free biosynthesis of the polypeptide was carried out in a translation solution containing a template DNA, PUREfrex 2.0 (GeneFrontier, PF201-0.25-5), and Aminoacyl tRNA (1). 1.25 μL (62.5 ng) of the template DNA prepared to 50 ng/μL, 2.5 μL of PUREfrex 2.0 Solution I, 0.25 μL of Solution II, 0.5 μL of Solution III, and 0.5 μL of Aminoacyl tRNA (1) were mixed and mixture was subjected to a reaction at 37° ° C. for 1 hour.
(§2) The amount of the biosynthesized polypeptide was measured by ELISA. 50 ng of Recombinant Human Integrin αVβ3 (R&D systems, 3050-AV-050) was immobilized in each well of a 96-well plate and blocked with Blocker Casein in PBS (Thermo, 37528), and then a cell-free biosynthesis solution diluted with Can Get Signal Immunoreaction Enhancer Solution I (TOYOBO, NKB-101) containing 5 mmol/L MgCl2 was added thereto, and the mixture was subjected to a reaction at room temperature for 3 hours. After washing with 5 mmol/L MgCl2/0.05% Tween 20-containing phosphate buffered saline (PBS), an anti-Myc antibody (Cell Signaling, 14038S) diluted with Can Get Signal Immunoreaction Enhancer Solution II (TOYOBO, NKB-101) was added thereto, and the mixture was subjected to a reaction at room temperature for 2 hours. After washing with PBS containing 5 mmol/L MgCl2/0.05% Tween 20, Super Signal ELISA Femto Substrate (Thermo, 37075) was added thereto, and the luminescence was measured. The amount of the fusion protein in the cell-free biosynthesis solution was calculated based on a calibration curve created from the fusion protein having a known concentration. The luminescence measurement was performed twice, and the average value of the amounts of the fusion protein was calculated. Table 2-1 and Table 2-2 show relative values of the biosynthesis amounts of respective fusion proteins in a case where the amount of the fusion protein of the control example was set to the reference value 1.
As a comparative control, a SKIK tag represented by SEQ ID NO: 107 was selected. The polypeptide to be biosynthesized is the fusion protein containing the integrin binding peptide, as in Example 1.
Using a template DNA including DNA sequences (SEQ ID NOs: 73 to 98) encoding VKKX tags represented by SEQ ID NOs: 27 to 52 produced in Example 1, and a DNA sequence (SEQ ID NO: 110) encoding a SKIK tag represented by SEQ ID NO: 107 produced in Example 2, the biosynthesis reaction was performed in the same manner as in Example 1 by setting the reaction time to 10 minutes. In the same manner in Example 1, the fusion protein was expressed by the cell-free peptide synthesis system and quantified by ELISA. The measurement was performed twice, and the average value of the amounts of the fusion protein was calculated. […] As control example used in Example 1, the control example of the reference value 1 has a form in which the base sequence (SEQ ID NO: 6) encoding the fusion protein is arranged immediately after the start codon ATG.

[2] = system: cell-free peptide synthesis system derived from Escherichia coli; assay: Cell-free biosynthesis of the integrin binding peptide fusion protein with N-terminal tag, 1 hour reaction, amount measured by ELISA; format: biochemical; conditions: fusion protein SEQ ID NO: 5; for Biosynthesis amount of fusion protein: relative value, control example without tag = 1, 37° C. for 1 hour, average of two measurements
Description: In the cell-free peptide synthesis system derived from Escherichia coli, the effect of the VKKX tag on the biosynthesis amount of the polypeptide was examined. As a polypeptide to be biosynthesized, an integrin binding peptide containing cysteine and chloroacetyl lysine was selected. In this polypeptide, a thiol group of cysteine and a chloroacetyl group of chloroacetyl lysine spontaneously form a thioether bond to become a cyclic polypeptide.
A fusion protein in which an integrin binding peptide, a Myc tag, and a HiBiT tag were linked in this order was designed. As a spacer, Gly-Gly-Ser was inserted between the integrin binding peptide and the Myc tag and between the Myc tag and the HiBiT tag. The amino acid sequence of this fusion protein is SEQ ID NO: 5, and the base sequence encoding this fusion protein is SEQ ID NO: 6. In SEQ ID NO: 5, the integrin binding peptide ranges to the amino acid at the twelfth position (that is, alanine) from an N-terminal, and the amino acid at eleventh position from the N-terminal is chloroacetyl lysine. The triplet TAG at the positions 31 to 33 from the 5′ terminal of the base sequence set forth in SEQ ID NO: 6 was assigned to the codon of chloroacetyl lysine. The end of the base sequence set forth in SEQ ID NO: 6 is the stop codon TAA.
A base sequence encoding a tagged fusion protein in which methionine, a VKKX tag (any of SEQ ID nOs: 7 to 52), and a fusion protein (SEQ ID NO: 5) were linked in this order was designed. In this base sequence, a base sequence (any of SEQ ID nOs: 53 to 98) encoding a VKKX tag is arranged immediately after the start codon ATG, and a base sequence encoding a fusion protein immediately after the base sequence (SEQ ID NO: 6) encoding the VKKX tag is arranged.
As a control example for evaluating the effect of the VKKX tag, a base sequence in which a base sequence (SEQ ID NO: 6) encoding a fusion protein arranged immediately after the start codon ATG was designed.
In order to translate chloroacetyl lysine which is an unnatural amino acid, a tRNA in which the anticodon was CUA and paired with the UAG codon of mRNA was prepared. This tRNA was aminoacylated with an N-chloroacetyl lysine hosphoro 2′ deoxyribocytidylylriboadenosine (pdCpA) ester. This aminoacyl tRNA is referred to as an Aminoacyl tRNA (1).
as §1
as §2, with “Table 2-1 and Table 2-2 show relative values of the biosynthesis amounts of respective fusion proteins in a case where the amount of the fusion protein of the control example was set to the reference value 1.” left out

[3] = molecular target: T1, Recombinant Human Integrin αVβ3 (R&D systems, 3050-AV-050) (human, UniProt P06756 31-992; P05106 27-718); assay: SPR (Biacore T-100): peptide immobilized on CM5 chip, integrin αVβ3 injected at 10, 30, 100, 300 nmol/L, 5 mmol/L MgCl2
T1 construct: Bought heterodimer
Experimental: In addition, as a comparative control, the binding ability (Kd value) of the integrin binding peptide was measured by the SPR method. An integrin binding peptide (SEQ ID NO: 126) was chemically synthesized and immobilized on a CM5 chip (Cytiva, BR100530) by an amine coupling method. The binding ability of the immobilized integrin binding peptide to Recombinant Human Integrin αVβ3 (R&D systems, 3050-AV-050) was measured using Biacore T-100 (Cytiva). As the measurement buffer, an HBS-N buffer (Cytiva, BR100670) in which MgCl₂ was added such that the final concentration was 5 mmol/L, and integrin was added thereto at a concentration of 10, 30, 100, or 300 nmol/L for 10 minutes. The CM5 chip was regenerated and used by repeating the addition of 500 mmol/L EDTA for 10 minutes twice.

T1 sequence (P06756 31-992 limits assumed, chain 1 of 2): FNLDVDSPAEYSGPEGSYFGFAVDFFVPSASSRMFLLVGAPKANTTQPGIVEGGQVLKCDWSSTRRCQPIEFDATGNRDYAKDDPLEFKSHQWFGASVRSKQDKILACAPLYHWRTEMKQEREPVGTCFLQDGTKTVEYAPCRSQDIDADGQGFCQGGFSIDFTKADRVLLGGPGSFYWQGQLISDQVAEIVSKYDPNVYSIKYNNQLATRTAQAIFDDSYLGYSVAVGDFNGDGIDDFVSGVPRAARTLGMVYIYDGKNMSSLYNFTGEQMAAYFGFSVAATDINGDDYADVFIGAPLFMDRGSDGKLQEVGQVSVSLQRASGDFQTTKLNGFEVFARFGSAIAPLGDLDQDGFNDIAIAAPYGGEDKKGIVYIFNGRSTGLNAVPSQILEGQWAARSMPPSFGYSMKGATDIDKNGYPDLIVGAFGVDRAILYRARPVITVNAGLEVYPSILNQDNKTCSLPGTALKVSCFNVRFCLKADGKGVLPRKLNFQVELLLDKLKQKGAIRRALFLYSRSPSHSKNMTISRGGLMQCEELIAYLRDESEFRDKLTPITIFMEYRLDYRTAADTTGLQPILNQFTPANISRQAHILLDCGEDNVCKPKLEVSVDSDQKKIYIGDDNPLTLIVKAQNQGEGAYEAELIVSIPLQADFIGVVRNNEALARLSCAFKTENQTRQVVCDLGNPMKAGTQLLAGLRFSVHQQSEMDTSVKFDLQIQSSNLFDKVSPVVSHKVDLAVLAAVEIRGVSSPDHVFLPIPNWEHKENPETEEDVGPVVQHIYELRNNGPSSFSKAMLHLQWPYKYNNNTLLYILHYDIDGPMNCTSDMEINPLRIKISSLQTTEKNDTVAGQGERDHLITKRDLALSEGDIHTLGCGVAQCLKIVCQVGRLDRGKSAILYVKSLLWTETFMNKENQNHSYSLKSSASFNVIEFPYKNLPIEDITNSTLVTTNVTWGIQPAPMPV
T1 sequence (P05106 27-718 limits assumed, chain 2 of 2): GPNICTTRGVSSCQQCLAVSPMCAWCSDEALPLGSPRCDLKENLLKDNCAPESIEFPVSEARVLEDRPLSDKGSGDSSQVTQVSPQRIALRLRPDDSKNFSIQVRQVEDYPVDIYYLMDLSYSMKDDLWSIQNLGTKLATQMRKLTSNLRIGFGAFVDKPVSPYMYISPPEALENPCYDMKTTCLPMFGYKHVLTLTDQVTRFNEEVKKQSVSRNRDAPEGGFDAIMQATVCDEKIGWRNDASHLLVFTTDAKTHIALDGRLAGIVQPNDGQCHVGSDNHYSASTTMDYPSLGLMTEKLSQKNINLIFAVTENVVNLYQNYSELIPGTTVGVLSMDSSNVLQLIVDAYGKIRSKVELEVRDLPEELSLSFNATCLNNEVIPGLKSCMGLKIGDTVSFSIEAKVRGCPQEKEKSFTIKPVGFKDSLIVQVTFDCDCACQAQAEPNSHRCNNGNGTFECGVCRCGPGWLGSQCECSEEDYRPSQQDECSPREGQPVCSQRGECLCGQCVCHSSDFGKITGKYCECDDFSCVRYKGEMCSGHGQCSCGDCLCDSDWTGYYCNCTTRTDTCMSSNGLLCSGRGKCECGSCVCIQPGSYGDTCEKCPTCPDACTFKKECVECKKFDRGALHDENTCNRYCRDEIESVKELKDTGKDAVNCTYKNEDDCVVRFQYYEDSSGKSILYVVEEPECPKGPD

SEQ ID NO: 45: VKKX tag, amino acid sequence VKKTKTTKD (VKKX Tag)
Biosynthesis amount of fusion protein [1]: 10.61
Biosynthesis amount of fusion protein [2]: 7.83

SEQ ID NO: 46: VKKX tag, amino acid sequence VKKTKTKKTK (VKKX Tag)
Biosynthesis amount of fusion protein [1]: 23.47
Biosynthesis amount of fusion protein [2]: 9.94

SEQ ID NO: 47: VKKX tag, amino acid sequence VKKTKTKKDK (VKKX Tag)
Biosynthesis amount of fusion protein [1]: 15.53
Biosynthesis amount of fusion protein [2]: 8.90

SEQ ID NO: 48: VKKX tag, amino acid sequence VKKTKTKTKK (VKKX Tag)
Biosynthesis amount of fusion protein [1]: 36.08
Biosynthesis amount of fusion protein [2]: 10.47

SEQ ID NO: 49: VKKX tag, amino acid sequence VKKTKTKTTK (VKKX Tag)
Biosynthesis amount of fusion protein [1]: 8.75
Biosynthesis amount of fusion protein [2]: 7.44

SEQ ID NO: 50: VKKX tag, amino acid sequence VKKTKTKDKK (VKKX Tag)
Biosynthesis amount of fusion protein [1]: 35.42
Biosynthesis amount of fusion protein [2]: 7.78

SEQ ID NO: 51: VKKX tag, amino acid sequence VKKTKTTTKK (VKKX Tag)
Biosynthesis amount of fusion protein [1]: 15.28
Biosynthesis amount of fusion protein [2]: 6.29

SEQ ID NO: 52: VKKX tag, amino acid sequence VKKTKTKTDTT (VKKX Tag)
Biosynthesis amount of fusion protein [1]: 9.15
increase of biosynthesis amount of the fusion protein ([2]; Example 1, versus control without tag, 1 hour): 4.3 times
Biosynthesis amount of fusion protein [2]: 4.33

B1: chemically synthesized integrin binding peptide (SEQ ID NO: 126) (peptide)
peptide: CEPRGDNYRK(ClAc)GGSKKK
notes: Immobilized on a CM5 chip by amine coupling; also called CEPRGDNYRXGGSKKK
Kd [3]: 7.6 nM
